# Active and inactive are the calls of the source.
# Tests used:
# BJ [1] = experiment: BJ-TERT fibroblast viability loss – cell-based, RAS-independent, luminescence, dose response (AID 1933); assay type: functional; details: Homo sapiens
# [2] = molecular target: T1, High affinity choline transporter 1 (Homo sapiens, UniProt Q9GZV3); experiment: human choline transporter potentiators, potency – cell-based, 10-point CRC, membrane potential dye, dose response (AID 602376); assay type: functional
# T1 sequence (Q9GZV3 whole entry): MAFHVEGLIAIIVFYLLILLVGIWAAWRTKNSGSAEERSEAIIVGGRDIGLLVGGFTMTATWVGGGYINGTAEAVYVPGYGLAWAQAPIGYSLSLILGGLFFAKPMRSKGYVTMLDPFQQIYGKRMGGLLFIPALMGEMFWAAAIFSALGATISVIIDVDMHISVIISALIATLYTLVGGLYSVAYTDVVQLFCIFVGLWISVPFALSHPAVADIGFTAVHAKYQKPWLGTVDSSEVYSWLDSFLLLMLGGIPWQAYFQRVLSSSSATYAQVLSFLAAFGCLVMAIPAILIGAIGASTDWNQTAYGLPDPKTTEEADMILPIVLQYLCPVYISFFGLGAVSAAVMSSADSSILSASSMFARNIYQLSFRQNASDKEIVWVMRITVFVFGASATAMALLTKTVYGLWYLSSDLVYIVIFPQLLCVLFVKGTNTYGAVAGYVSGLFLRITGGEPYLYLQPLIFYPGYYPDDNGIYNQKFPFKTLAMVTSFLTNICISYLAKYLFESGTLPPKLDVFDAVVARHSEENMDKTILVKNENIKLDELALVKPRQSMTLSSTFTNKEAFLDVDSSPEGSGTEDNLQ
# BJ [3] = experiment: BJ-TERT-LT-ST fibroblast viability loss – cell-based, RAS-independent, luminescence, dose response (AID 1935); assay type: functional; details: Homo sapiens;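 further: BJ fibroblasts immortalized with TERT plus LT and ST oncogenes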
# BJ [4] = experiment: cells; assay type: functional, cell-based; details: Homo sapiens
# [5] = HEK-293T viability loss after treatment – luminescence, T-cell screen hits, cytotoxicity control for TCR NF-kB inhibitor project, dose response (AID 489026); assay type: functional, cell-based;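 further: cells exposed to compound about 14 hours before the viability readout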
# [6] = alpha-synuclein stem-loop luciferase translation blockers – H4 neuroglioma cells, luminescence, confirmation (AID 1988); assay type: functional, cell-based
# [7] = luciferase reporter signal suppression in cells – H4 neuroglioma cells, luminescence, dose response (AID 1990); assay type: functional, cell-based
# [8] = DRD fibroblast viability loss – cell-based, non-viral oncogenic, luminescence, dose response (AID 1934); assay type: functional; details: Homo sapiens
# [9] = Luminescence Cell-Based Dose Response HTS to Identify Inhibitors of 5'UTR Stem-Loop Driven Prion Protein mRNA Translation in H4 Neuroglioblastoma Cells. [Related pubchem assays: 1827 (Project Summary), 1813 (Primary HTS)]; assay type: functional
# [10] = molecular target: Mitogen-activated protein kinase kinase kinase kinase 4 (Homo sapiens, UniProt O95819); assay type: functional
# [11] = molecular target: Dual specificity protein kinase CLK4 (Homo sapiens, UniProt Q9HAZ1); assay type: functional
# [12] = molecular target: Death-associated protein kinase 3 (Homo sapiens, UniProt O43293); assay type: functional;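 further: measured as one member of a kinome-wide profiling panel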
# [13] = molecular target: Glycogen synthase kinase-3 beta (Homo sapiens, UniProt P49841); assay type: functional;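 further: value comes from a broad kinome profiling panel, with GSK3B as the panel member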
# [14] = molecular target: Dual specificity tyrosine-phosphorylation-regulated kinase 1A (Homo sapiens, UniProt Q13627); assay type: functional;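 further: measured against DYRK1A as one member of a broad kinome profiling panel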
# [15] = molecular target: Serine/threonine-protein kinase TAO1 (Homo sapiens, UniProt Q7L7X3); assay type: functional
# [16] = molecular target: Serine/threonine-protein kinase TBK1 (Homo sapiens, UniProt Q9UHD2); experiment: Navigating the Kinome. Panel member name: TBK1; assay type: functional
# [17] = molecular target: Casein kinase I isoform alpha (Homo sapiens, UniProt P48729); assay type: functional
# [18] = molecular target: Leukocyte tyrosine kinase receptor (Homo sapiens, UniProt P29376); experiment: Navigating the Kinome. Panel member name: LTK; assay type: functional
# [19] = molecular target: Macrophage colony-stimulating factor 1 receptor (Homo sapiens, UniProt P07333); assay type: functional;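 further: value comes from the Navigating the Kinome screening panel, CSF1R member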
# [20] = molecular target: Vascular endothelial growth factor receptor 1 (Homo sapiens, UniProt P17948); assay type: functional;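 further: measured within a kinome-wide profiling panel, FLT1 as the panel member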
# [21] = molecular target: Inhibitor of nuclear factor kappa-B kinase subunit epsilon (Homo sapiens, UniProt Q14164); experiment: Navigating the Kinome. Panel member name: IKBKE; assay type: functional
# [22] = molecular target: Platelet-derived growth factor receptor beta (Homo sapiens, UniProt P09619); assay type: functional;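 further: value comes from a kinome panel, with PDGFRB tested as one panel member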
# [23] = molecular target: Tyrosine-protein kinase receptor TYRO3 (Homo sapiens, UniProt Q06418); assay type: functional;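 further: TYRO3 value obtained as one member of a kinome-wide profiling panel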
# [24] = molecular target: cAMP-dependent protein kinase catalytic subunit PRKX (Homo sapiens, UniProt P51817); assay type: functional
# [25] = molecular target: Cyclin-dependent kinase 5 (Homo sapiens, UniProt Q00535); assay type: functional;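 further: CDK5 measured as one member of a kinase profiling panel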
# [26] = molecular target: Tyrosine-protein kinase JAK2 (Homo sapiens, UniProt O60674); assay type: functional;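 further: JAK2 tested as one member of a kinase panel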
# [27] = molecular target: Dual specificity protein kinase CLK2 (Homo sapiens, UniProt P49760); assay type: functional
# [28] = molecular target: Cyclin-dependent kinase 9 (Homo sapiens, UniProt P50750); assay type: functional;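 further: value from the CDK9 entry of a kinome-spanning kinase panel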
# [29] = molecular target: Vascular endothelial growth factor receptor 2 (Homo sapiens, UniProt P35968); assay type: functional
# [30] = molecular target: Serine/threonine-protein kinase D3 (Homo sapiens, UniProt O94806); assay type: functional;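 further: determined within a kinase panel screen, with PRKCN as the panel member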
# [31] = molecular target: Cyclin-dependent kinase 7 (Homo sapiens, UniProt P50613); assay type: functional;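 further: value comes from a kinome-wide kinase profiling panel in which CDK7 is one member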
# [32] = molecular target: Proto-oncogene tyrosine-protein kinase receptor Ret (Homo sapiens, UniProt P07949); assay type: functional;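 further: measured within a kinome-wide profiling panel, RET as the panel member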
# [33] = molecular target: cAMP-dependent protein kinase catalytic subunit alpha (Homo sapiens, UniProt P17612); assay type: functional
# [34] = molecular target: Fibroblast growth factor receptor 1 (Homo sapiens, UniProt P11362); assay type: functional
# [35] = molecular target: Dual specificity tyrosine-phosphorylation-regulated kinase 1B (Homo sapiens, UniProt Q9Y463); experiment: Navigating the Kinome. Panel member name: DYRK1B; assay type: functional
# [36] = molecular target: Glycogen synthase kinase-3 alpha (Homo sapiens, UniProt P49840); assay type: functional;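 further: GSK3A result taken from a broad kinome-wide kinase panel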
# [37] = molecular target: Serine/threonine-protein kinase PAK 4 (Homo sapiens, UniProt O96013); assay type: functional;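 further: value obtained within a kinome profiling panel in which PAK4 was one of the panel members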
# [38] = molecular target: Leucine-rich repeat serine/threonine-protein kinase 2 (Homo sapiens, UniProt Q5S007); assay type: functional;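 further: value from a broad kinome-wide panel profiling study in which LRRK2 was one of the kinases tested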
# [39] = molecular target: Platelet-derived growth factor receptor alpha (Homo sapiens, UniProt P16234); experiment: Navigating the Kinome. Panel member name: PDGFRA; assay type: functional
# [40] = molecular target: Mitogen-activated protein kinase kinase kinase kinase 2 (Homo sapiens, UniProt Q12851); assay type: functional;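 further: measured as one member of a kinome-wide kinase panel, with MAP4K2 as the panel entry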
# Aurora kinase A = Aurora kinase A (Homo sapiens, UniProt O14965); assay type: functional;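 further: value from the Navigating the Kinome kinase panel profiling, panel entry STK6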
# [41] = molecular target: Protein disulfide-isomerase (Homo sapiens, UniProt P07237); experiment: inhibition of PDI-driven insulin aggregation – biochemical, turbidity, absorbance, cherry-picked samples, dose response (AID 602350); assay type: functional
# Dual specificity protein kinase CLK2, sequence (P49760 whole entry): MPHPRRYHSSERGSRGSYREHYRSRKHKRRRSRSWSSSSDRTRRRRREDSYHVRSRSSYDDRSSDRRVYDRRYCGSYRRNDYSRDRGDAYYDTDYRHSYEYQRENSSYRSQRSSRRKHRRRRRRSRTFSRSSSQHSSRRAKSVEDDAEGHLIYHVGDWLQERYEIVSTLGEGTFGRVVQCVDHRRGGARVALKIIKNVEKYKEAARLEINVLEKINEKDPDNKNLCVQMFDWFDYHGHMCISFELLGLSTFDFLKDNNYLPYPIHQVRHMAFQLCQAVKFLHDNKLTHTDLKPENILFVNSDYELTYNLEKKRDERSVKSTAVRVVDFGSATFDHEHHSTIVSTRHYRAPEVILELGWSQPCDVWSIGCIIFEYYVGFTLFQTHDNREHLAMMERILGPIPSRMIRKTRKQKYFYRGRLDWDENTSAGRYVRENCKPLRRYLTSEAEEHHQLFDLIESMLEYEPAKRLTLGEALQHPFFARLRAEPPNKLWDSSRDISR
# Cyclin-dependent kinase 5, sequence (Q00535 whole entry): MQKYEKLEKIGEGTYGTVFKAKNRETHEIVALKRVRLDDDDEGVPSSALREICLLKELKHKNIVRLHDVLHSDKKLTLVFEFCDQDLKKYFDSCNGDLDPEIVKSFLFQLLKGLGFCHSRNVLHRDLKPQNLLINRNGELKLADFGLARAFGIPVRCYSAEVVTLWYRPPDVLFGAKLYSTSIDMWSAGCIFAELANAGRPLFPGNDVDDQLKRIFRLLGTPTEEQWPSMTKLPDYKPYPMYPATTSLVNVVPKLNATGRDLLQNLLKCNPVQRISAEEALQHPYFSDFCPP
# Proto-oncogene tyrosine-protein kinase receptor Ret, sequence (P07949 whole entry): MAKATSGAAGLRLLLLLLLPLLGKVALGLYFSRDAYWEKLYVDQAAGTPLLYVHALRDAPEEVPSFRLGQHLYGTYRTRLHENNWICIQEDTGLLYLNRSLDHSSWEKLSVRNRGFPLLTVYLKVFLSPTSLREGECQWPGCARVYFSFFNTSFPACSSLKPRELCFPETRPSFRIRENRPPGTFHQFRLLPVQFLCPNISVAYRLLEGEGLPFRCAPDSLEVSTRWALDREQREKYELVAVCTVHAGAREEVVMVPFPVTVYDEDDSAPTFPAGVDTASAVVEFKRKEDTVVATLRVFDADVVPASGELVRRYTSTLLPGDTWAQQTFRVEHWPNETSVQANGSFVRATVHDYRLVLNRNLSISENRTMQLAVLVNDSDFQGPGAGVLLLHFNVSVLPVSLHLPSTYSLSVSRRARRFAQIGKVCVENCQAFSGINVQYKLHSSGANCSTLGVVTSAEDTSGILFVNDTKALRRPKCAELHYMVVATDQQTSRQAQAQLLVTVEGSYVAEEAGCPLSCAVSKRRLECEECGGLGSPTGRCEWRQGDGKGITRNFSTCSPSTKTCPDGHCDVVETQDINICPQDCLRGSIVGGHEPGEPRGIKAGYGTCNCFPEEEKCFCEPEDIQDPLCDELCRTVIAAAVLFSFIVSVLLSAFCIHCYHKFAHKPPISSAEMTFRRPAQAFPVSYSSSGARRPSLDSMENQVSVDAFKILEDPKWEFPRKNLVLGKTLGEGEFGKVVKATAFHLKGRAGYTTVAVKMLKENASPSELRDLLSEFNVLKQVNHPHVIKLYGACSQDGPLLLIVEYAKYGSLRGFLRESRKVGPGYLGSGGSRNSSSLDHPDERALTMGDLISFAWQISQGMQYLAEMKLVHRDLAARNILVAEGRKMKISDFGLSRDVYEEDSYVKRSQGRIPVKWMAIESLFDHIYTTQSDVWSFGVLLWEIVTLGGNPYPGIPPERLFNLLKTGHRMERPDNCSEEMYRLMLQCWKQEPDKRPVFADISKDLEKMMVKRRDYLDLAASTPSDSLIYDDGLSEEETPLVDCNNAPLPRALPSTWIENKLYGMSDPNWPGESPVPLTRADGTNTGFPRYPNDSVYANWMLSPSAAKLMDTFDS
# Serine/threonine-protein kinase TAO1, sequence (Q7L7X3 whole entry): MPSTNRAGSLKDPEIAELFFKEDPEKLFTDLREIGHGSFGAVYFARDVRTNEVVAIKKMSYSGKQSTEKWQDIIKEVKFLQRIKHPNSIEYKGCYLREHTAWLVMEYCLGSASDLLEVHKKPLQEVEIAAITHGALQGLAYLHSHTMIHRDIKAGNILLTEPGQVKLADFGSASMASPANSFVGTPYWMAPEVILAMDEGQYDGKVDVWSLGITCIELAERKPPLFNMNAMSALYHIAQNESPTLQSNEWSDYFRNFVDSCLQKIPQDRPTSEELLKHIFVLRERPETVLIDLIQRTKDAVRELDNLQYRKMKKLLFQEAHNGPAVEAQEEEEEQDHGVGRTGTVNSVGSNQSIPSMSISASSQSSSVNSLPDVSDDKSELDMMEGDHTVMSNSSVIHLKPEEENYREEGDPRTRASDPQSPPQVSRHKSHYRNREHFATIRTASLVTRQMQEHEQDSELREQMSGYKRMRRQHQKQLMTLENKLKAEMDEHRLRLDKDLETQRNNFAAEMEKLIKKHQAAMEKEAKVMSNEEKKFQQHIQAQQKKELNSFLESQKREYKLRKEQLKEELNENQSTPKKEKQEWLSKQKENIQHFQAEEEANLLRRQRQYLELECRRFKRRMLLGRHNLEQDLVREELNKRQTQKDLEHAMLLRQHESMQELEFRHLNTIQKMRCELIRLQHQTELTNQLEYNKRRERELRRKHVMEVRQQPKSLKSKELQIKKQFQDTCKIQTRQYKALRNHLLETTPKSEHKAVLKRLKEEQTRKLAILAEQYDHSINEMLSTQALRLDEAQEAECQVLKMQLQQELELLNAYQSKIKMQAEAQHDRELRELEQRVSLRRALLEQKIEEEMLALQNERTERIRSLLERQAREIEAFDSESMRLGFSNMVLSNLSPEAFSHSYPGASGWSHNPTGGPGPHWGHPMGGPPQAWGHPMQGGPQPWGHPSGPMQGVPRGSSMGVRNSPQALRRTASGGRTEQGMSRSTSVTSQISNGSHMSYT
# Leukocyte tyrosine kinase receptor, sequence (P29376 whole entry): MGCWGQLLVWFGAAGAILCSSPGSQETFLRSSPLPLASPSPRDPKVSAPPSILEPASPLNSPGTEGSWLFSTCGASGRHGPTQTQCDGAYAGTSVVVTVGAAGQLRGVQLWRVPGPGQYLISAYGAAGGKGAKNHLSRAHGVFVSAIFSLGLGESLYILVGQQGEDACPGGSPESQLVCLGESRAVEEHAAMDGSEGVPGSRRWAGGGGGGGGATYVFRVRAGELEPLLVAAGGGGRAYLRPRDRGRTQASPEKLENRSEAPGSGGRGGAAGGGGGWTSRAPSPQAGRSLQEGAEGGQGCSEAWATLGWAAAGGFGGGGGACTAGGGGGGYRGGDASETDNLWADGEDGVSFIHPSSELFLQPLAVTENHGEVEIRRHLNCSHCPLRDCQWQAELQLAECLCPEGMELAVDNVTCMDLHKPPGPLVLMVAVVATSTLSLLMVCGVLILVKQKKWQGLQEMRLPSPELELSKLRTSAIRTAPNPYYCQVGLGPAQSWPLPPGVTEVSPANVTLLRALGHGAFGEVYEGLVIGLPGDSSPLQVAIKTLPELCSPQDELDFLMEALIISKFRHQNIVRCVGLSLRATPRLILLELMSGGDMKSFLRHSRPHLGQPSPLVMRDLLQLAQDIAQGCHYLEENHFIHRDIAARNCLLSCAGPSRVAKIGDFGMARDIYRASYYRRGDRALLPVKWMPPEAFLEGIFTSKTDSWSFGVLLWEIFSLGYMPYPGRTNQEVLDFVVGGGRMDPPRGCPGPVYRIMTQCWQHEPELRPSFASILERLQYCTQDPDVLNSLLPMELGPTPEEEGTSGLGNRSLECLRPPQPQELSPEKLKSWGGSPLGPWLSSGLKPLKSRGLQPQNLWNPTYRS
# Macrophage colony-stimulating factor 1 receptor, sequence (P07333 whole entry): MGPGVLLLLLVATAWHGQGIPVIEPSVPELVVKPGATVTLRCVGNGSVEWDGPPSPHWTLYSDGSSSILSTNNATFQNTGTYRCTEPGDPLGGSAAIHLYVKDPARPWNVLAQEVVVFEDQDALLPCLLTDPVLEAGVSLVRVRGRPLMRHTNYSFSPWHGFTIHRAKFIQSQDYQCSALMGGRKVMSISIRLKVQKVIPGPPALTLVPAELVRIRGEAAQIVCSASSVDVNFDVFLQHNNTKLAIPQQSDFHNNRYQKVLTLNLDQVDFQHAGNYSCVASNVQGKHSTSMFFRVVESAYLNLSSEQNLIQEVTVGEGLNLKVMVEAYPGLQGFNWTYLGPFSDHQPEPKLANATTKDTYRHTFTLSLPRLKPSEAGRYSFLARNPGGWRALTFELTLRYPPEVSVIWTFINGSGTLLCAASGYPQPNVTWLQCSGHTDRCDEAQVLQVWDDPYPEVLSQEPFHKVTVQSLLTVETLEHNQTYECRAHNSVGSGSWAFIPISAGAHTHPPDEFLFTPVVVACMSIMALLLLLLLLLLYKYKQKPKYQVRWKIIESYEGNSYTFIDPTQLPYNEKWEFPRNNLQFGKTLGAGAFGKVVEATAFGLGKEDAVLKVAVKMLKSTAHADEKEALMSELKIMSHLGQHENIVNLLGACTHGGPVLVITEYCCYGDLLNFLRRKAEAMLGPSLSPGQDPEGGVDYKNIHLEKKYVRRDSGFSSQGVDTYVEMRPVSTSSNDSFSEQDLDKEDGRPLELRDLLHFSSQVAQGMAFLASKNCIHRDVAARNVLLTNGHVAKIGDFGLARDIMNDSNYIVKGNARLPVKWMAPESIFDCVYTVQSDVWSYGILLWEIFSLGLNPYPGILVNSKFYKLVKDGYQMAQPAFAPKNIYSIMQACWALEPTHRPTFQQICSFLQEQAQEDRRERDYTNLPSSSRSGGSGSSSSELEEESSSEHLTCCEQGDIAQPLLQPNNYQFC
structure (smiles),measurement,setting,value
COc1ccc(OC)c(NS(=O)(=O)c2ccc(N3CCCC3=O)cc2)c1,EC50,BJ [1],0.812 µM (active)
same,EC50,[2],22.1 µM (active)
same,EC50,BJ [3],1.26 µM (inconclusive)
same,EC50,BJ [4],27.9 µM (inconclusive)
same,IC50,[5],> 80 µM (inactive)
same,EC50,[6],0.247 µM (active)
same,EC50,[7],3.37 µM (active)
same,EC50,[8],0.463 µM (active)
same,EC50,[9],7.75 µM (active)
CC(=O)c1ccccc1-c1ncnc2[nH]ccc12,Ki,[10],50.1 µM (active)
same,Ki,[11],2.51 µM (active)
same,Ki,[12],63.1 µM (active)
same,Ki,[13],63.1 µM (active)
same,Ki,[14],20 µM (active)
same,Ki,[15],39.8 µM (active)
same,Ki,[16],63.1 µM (active)
same,Ki,[17],50.1 µM (active)
same,Ki,[18],39.8 µM (active)
same,Ki,[19],63.1 µM (active)
same,Ki,[20],39.8 µM (active)
same,Ki,[21],100 µM (active)
same,Ki,[22],31.6 µM (active)
same,Ki,[23],63.1 µM (active)
same,Ki,[24],39.8 µM (active)
same,Ki,[25],50.1 µM (active)
same,Ki,[26],50.1 µM (active)
same,Ki,[27],20 µM (active)
same,Ki,[28],50.1 µM (active)
same,Ki,[29],15.8 µM (active)
same,Ki,[30],39.8 µM (active)
same,Ki,[31],63.1 µM (active)
same,Ki,[32],39.8 µM (active)
same,Ki,[33],15.8 µM (active)
same,Ki,[34],63.1 µM (active)
same,Ki,[35],20 µM (active)
same,Ki,[36],63.1 µM (active)
same,Ki,[37],50.1 µM (active)
same,Ki,[38],12.6 µM (active)
same,Ki,[39],31.6 µM (active)
same,Ki,[40],25.1 µM (active)
same,Ki,Aurora kinase A,> 63.1 µM (inactive)
Cc1noc(C)c1S(=O)(=O)Nc1ccc2c(c1)CC(=O)N([C@H](C)CO)C[C@H](C)[C@H](CN(C)S(=O)(=O)c1ccccc1)O2,AC50,[41],19.5 µM (active)
